In article PMC10826971, “Evaluating protein cross-linking as a therapeutic strategy to stabilize SOD1 variants in a mouse model of familial ALS” (PLOS Biology, 2024):

What was measured:
SOD1 = SOD1 (Homo sapiens, UniProt P00441); assay type: binding
Method: A computational search was performed in PubChem to identify all compounds containing a cyclic disulfide motif. […] Of these, 69 compounds cross-linked SOD1 with a wide array of reaction rates. Only 2 compounds could cross-link 100% of SOD1 during the assay, including one 5-membered cyclic disulfide (4-Amino-1,2-Dithiolane-4-Carboxylic Acid) and one 6-membered cyclic thiosulfinate (1,2-dithiane 1-oxide).

transthyretin = details: only approved drug with a kinetic stabilizing mechanism; cited from earlier work

SOD1, sequence (P00441 2-154 limits assumed): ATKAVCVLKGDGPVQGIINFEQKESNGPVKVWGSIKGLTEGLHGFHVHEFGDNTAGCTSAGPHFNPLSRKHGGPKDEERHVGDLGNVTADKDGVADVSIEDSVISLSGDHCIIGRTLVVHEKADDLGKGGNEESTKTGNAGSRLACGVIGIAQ

| SMILES | SOD1 cross-linked during the assay (SOD1) [%] | increase in thermal stability (transthyretin) [°C] |
| --- | --- | --- |
| NC1(C(=O)O)CSSC1 [4-Amino-1,2-Dithiolane-4-Carboxylic Acid] | 100 | – |
| O=C(O)c1ccc2nc(-c3cc(Cl)cc(Cl)c3)oc2c1 [tafamidis] | – | 6 |
